According to patent US20240262806A1, “INHIBITORS OF NLRP3” (PTC THERAPEUTICS, INC., priority 2021, published 2024):

System: NLRP3 inflammasome
Assay: IL-1β Secretion Assay (NLRP3-dependent IL-1β secretion in PMA-differentiated THP-1 cells, nigericin activation, HTRF)
Assay type: cell-based
Conditions: Homo sapiens, THP-1, THP-1 cells, 100 ng/mL PMA 24 h, compound 20 h, 2.5 μM Nigericin 3 h; read-out: IC50 IL-1β Inhibition
In short: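 IL-1β release, quantified by HTRF after nigericin activation of the NLRP3 inflammasome, was the read-out. A logistic fit of percent inhibition gave IC50.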

| SMILES | IC50 [nM] |
| --- | --- |
| CN1CCC[C@@H](Nc2nnc(-c3c(O)cc(Cl)cc3F)c3ccncc23)C1 [Compound I-170] | < 1 |
| Oc1cc(Br)ccc1-c1nnc(N[C@@H]2CCCN(CC(F)F)C2)n2nccc12 [Compound I-548] | 1 to 10 |
| CCN1CCC[C@@H](Nc2nnc(-c3ccc(Br)cc3O)c3cccn23)C1 [Compound I-564] | < 1 |
| COc1ccc(-c2nnc(N[C@@H]3CCCN(CCO)C3)n3cccc23)c(O)c1 [Compound I-358] | 1 to 10 |
| C[C@]1(O)C[C@@H](Nc2nnc(-c3ccc(C(F)(F)F)cc3O)c3cccn23)C1 [Compound I-406] | 1 to 10 |
| Cc1cccc(O)c1-c1nnc(N[C@@H]2CCCN(C)C2)c2ccccc12 [Compound I-50] | < 1 |
| Oc1cc(C(F)(F)F)ccc1-c1nnc(N[C@@H]2CCC[C@H](O)C2)n2cccc12 [Compound I-399] | 10 to 100 |
| CCN1CCC[C@@H](Nc2nnc(-c3c(O)cc(Cl)cc3F)c3cccn23)C1 [Compound I-433] | < 1 |
| Oc1cc(C(F)(F)F)ccc1-c1nnc(N[C@H]2CCCOC2)c2cnccc12 [Compound I-310] | 1 to 10 |
| CN1CCC[C@@H](Nc2nnc(-c3ccc(Cl)cc3F)c3ccncc23)C1 [Compound I-129] | < 1 |
| Cc1cc2c(-c3ccc(C(F)(F)F)cc3OC(F)F)nnc(N[C@@H]3CCCN(C)C3)n2c1 [Compound I-591] | 1 to 10 |
| CN1CCC[C@@H](Nc2nnc(-c3ccc(Br)cc3O)c3ccnn23)C1 [Compound I-452] | 1 to 10 |
| CN1CCC[C@@H](Nc2nnc(-c3ccc(-n4nccn4)cc3O)c3ccccc23)C1 [Compound I-10, (R)-2-(4-((1-methylpiperidin-3-yl)amino)phthalazin-1-yl)-5-(2H-1,2,3-triazol-2-yl)phenol] | 1 to 10 |
| CN1CCC[C@@H](Nc2nnc(-c3ccc(O)cc3O)c3ccccc23)C1 [Compound I-15, (R)-4-(4-((1-methylpiperidin-3-yl)amino)phthalazin-1-yl)benzene-1,3-diol] | 100 to 300 |
| CN1CCC[C@@H](Nc2nnc(-c3ccc(C(F)(F)F)cc3CC(F)(F)F)c3ccncc23)C1 [Compound I-214, (R)—N-(1-Methylpiperidin-3-yl)-1-(2-(2,2,2-trifluoroethyl)-4-(trifluoromethyl)-phenyl)pyrido[3,4-d]pyridazin-4-amine] | < 1 |
| Cc1ccc(-c2nnc(N[C@@H]3CCCN(C)C3)c3cnccc23)c(C(F)(F)F)c1 [Compound I-298] | 1 to 10 |
| Cc1cc(F)c(-c2nnc(N[C@@H]3CCCN(C)C3)n3cccc23)c(OC(F)F)c1 [Compound I-428] | 10 to 100 |
| CCN1CCC[C@@H](Nc2nnc(-c3ccc(OC(F)(F)F)cc3O)c3c(F)ccn23)C1 [Compound I-604] | 1 to 10 |
| COc1cc(C#N)ccc1-c1nnc(N[C@@H]2CCCN(C)C2)n2cccc12 [Compound I-407] | 10 to 100 |
| Cc1ccc(-c2nnc(N[C@@H]3CCCN(C)C3)c3ccccc23)c(O)c1C [Compound I-42] | < 1 |
| CN1CCC[C@@H](Nc2nnc(-c3ccc(C(F)(F)F)cc3C(F)(F)F)c3cccn23)C1 [Compound I-348] | 1 to 10 |
| CN1CCC[C@@H](Nc2nnc(-c3c(F)ccc(C4CC4)c3O)c3ccncc23)C1 [Compound I-210] | 10 to 100 |

| SMILES | IC50 [nM] |
| --- | --- |
| COc1cc(C(F)(F)F)ccc1-c1nnc(N2CCCC(N(C)C)C2)c2ccncc12 (centres unmarked) [Compound I-162] | 10 to 100 |
| CN(C)C(C)(C)CNc1nnc(-c2ccc(C(F)(F)F)cc2O)c2ccncc12 [Compound I-275] | 1 to 10 |
| OCCN1CCC[C@@H](Nc2nnc(-c3ccc(C4CC4)cc3C(F)F)c3cccn23)C1 [Compound I-509] | 1 to 10 |
| Cc1ccn2c(N[C@@H]3CCCN(C)C3)nnc(-c3ccc(C(F)(F)F)cc3O)c12 [Compound I-321, (R)-2-(8-Methyl-4-((1-methylpiperidin-3-yl)amino)pyrrolo[1,2-d][1,2,4]triazin-1-yl)-5-(trifluoromethyl)phenol] | 10 to 100 |
| Cc1cc2c(-c3ccc(C(F)(F)F)cc3C(F)(F)F)nnc(N[C@@H]3CCCN(C)C3)n2n1 [Compound I-382] | 1 to 10 |
| C[C@@H](O)CNc1nnc(-c2ccc(OC(F)(F)F)cc2O)c2cccn12 [Compound I-437] | 10 to 100 |
| CN1CCCCC1CNc1nnc(-c2ccc(C(F)(F)F)cc2O)c2ccncc12 (centres unmarked) [Compound I-243] | 1 to 10 |
| CN(c1nnc(-c2ccc(C(F)(F)F)cc2O)c2ccncc12)[C@@H]1CCCNC1 [Compound I-292, (R)-2-(4-(Methyl(piperidin-3-yl)amino)pyrido[3,4-d]pyridazin-1-yl)-5-(trifluoromethyl)phenol] | 1 to 10 |
| COc1ccc(-c2nnc(N[C@@H]3CCCN(C)C3)n3cccc23)c(O)c1 [Compound I-357] | 1 to 10 |
| Cc1ccc(-c2nnc(N[C@@H]3CCCN(CC(C)(C)O)C3)n3cccc23)c(O)c1 [Compound I-367] | 10 to 100 |
| OCCN1CCC[C@@H](Nc2nnc(-c3ccc(OC(F)(F)F)cc3O)c3cccn23)C1 [Compound I-373] | 1 to 10 |
| CCN1CCC[C@@H](Nc2nnc(-c3c(O)cc(C)cc3F)c3cncn23)C1 [Compound I-626] | < 1 |
| CN1CCC[C@@H](Nc2nnc(-c3ccc(F)cc3O)c3ccccc23)C1 [Compound I-16] | 1 to 10 |
| C[C@@H](O)CNc1nnc(-c2ccc(C(F)(F)F)cc2C(F)(F)F)c2cccn12 [Compound I-492] | 1 to 10 |
| Oc1cc(Cl)cc(F)c1-c1nnc(NCC2CCCO2)n2cccc12 (centres unmarked) [Compound I-621] | 10 to 100 |
| Oc1cc(Cl)ccc1-c1nnc(N[C@@H]2CCOC2)n2cncc12 [Compound I-561] | 1 to 10 |
| CN1CCC[C@@H](Nc2nnc(-c3ccc(C(F)(F)F)cc3C(F)(F)F)c3c2CCC3)C1 [Compound I-259] | 10 to 100 |
| CN1CC[C@H](F)[C@@H](Nc2nnc(-c3ccc(C(F)(F)F)cc3O)c3cccn23)C1 [Compound I-478] | 10 to 100 |
| Cc1cc2c(-c3c(O)cc(C(F)(F)F)cc3F)nnc(N[C@@H]3CCCN(C)C3)n2n1 [Compound I-363] | < 1 |
| Oc1cc(Cl)ccc1-c1nnc(N[C@@H]2CCCN(CC(F)(F)F)C2)n2cncc12 [Compound I-558] | 1 to 10 |
| C[C@]1(O)C[C@@H](Nc2nnc(-c3ccc(C(F)(F)F)cc3O)c3ccncc23)C1 [Compound I-305] | < 1 |
| COc1ccc(-c2nnc(N[C@@H]3CCCN(C)C3)n3c(C)ncc23)c(O)c1 [Compound I-411] | 10 to 100 |

| SMILES | IC50 [nM] |
| --- | --- |
| Oc1cc(C(F)(F)F)cc(F)c1-c1nnc(N[C@@H]2CCCN(C3CCOC3)C2)n2cccc12 (some centres unmarked) [Compound I-447] | 1 to 10 |
| CCN1CCC[C@@H](Nc2nnc(-c3ccc(C4CC4)cc3C(F)F)c3cccn23)C1 [Compound I-508] | 1 to 10 |
| Cc1cc(O)c(-c2nnc(N[C@@H]3CCCN(C)C3)n3cccc23)c(F)c1 [Compound I-342, 3-Fluoro-5-methyl-2-[4-[[(3R)-1-methyl-3-piperidyl]amino]pyrrolo[1,2-d][1,2,4]triazin-1-yl]phenol] | 1 to 10 |
| CN1CCC[C@@H](Nc2nnc(-c3ccc(C(F)(F)F)cc3-c3cnn(C)c3)c3cnccc23)C1 [Compound I-189] | 10 to 100 |
| Cc1cc(C2CC2)ccc1-c1nnc(N[C@@H]2CCCN(C)C2)c2cnccc12 [Compound I-272] | 1 to 10 |
| COc1ccc(-c2nnc(N[C@@H]3CCCN(C)C3)n3nc(C4CC4)cc23)c(O)c1 [Compound I-347] | 10 to 100 |
| Cc1cc(O)c(-c2nnc(N[C@@H]3CCCN(C)C3)c3cnccc23)c(O)c1 [Compound I-268] | < 1 |
| COc1cc(C(F)(F)F)ccc1-c1nnc(N[C@@H]2CCCN(C)C2)n2cncc12 [Compound I-349, 1-[2-Methoxy-4-(trifluoromethyl)phenyl]-N-[(3R)-1-methyl-3-piperidyl]imidazo[1,5-d][1,2,4]triazin-4-amine] | 1 to 10 |
| CN1CCC[C@@H](Nc2nnc(-c3ccc(Cl)cc3O)c3c2CCC3)C1 [Compound I-314] | 1 to 10 |
| CN1CCC[C@@H](Nc2nnc(-c3ccc(C(F)(F)F)cc3O)c3occc23)C1 [Compound I-85] | 10 to 100 |
| Oc1cc(Cl)ccc1-c1nnc(N[C@@H]2CCC[C@H](O)C2)n2cncc12 [Compound I-578] | < 1 |
| CN1CCC[C@@H](Nc2nnc(-c3c(O)cc(C(F)(F)F)cc3F)c3cccn23)C1 [Compound I-372] | < 1 |
| CCOC(=O)CN1CCC[C@@H](Nc2nnc(-c3ccc(C(F)(F)F)cc3O)c3ccccc23)C1 [Compound I-65, Ethyl (R)-2-(3-((4-(2-hydroxy-4-(trifluoromethyl)phenyl)phthalazin-1-yl)amino)piperidin-1-yl)acetate] | < 1 |
| Oc1cc(C(F)(F)F)ccc1-c1nnc(N[C@H]2CNC[C@H](O)C2)c2ccccc12 [Compound I-83] | 10 to 100 |
| Cc1ccc(-c2nnc(N[C@@H]3CCCN(C)C3)n3cccc23)c(C(F)(F)F)c1 [Compound I-533] | 1 to 10 |
| FC(F)Oc1cc(C(F)(F)F)ccc1-c1nnc(N[C@@H]2CCCN(C3CCC3)C2)c2cnccc12 [Compound I-312] | < 1 |
| FC(F)OCCN1CCC[C@@H](Nc2nnc(-c3ccc(C(F)(F)F)cc3C(F)(F)F)c3cccn23)C1 [Compound I-469] | 10 to 100 |
| CN1CCCC[C@H](Nc2nnc(-c3ccc(C(F)(F)F)cc3O)c3ccncc23)C1 [Compound I-186] | 10 to 100 |
| CCN1CCC[C@@H](Nc2nnc(-c3c(O)cc(Cl)cc3F)c3cc(C)nn23)C1 [Compound I-579] | < 1 |
| COc1cc(C(F)(F)F)ccc1-c1nnc(N[C@@H]2CCCCNC2)c2cnccc12 [Compound I-251] | 100 to 300 |
| CN1CCC[C@@H](Nc2nnc(-c3ccc(OC(F)(F)F)cc3O)c3cccn23)C1 [Compound I-366] | 1 to 10 |
